{"source": "patent US20220347299A1", "about": "“FLUORESCENT SYSTEMS FOR BIOLOGICAL IMAGING AND USES THEREOF” (LIGHTOX LIMITED, priority 2019, published 2022)", "key": {"[1]": {"test": "Peak absorption and fluorescence emission wavelengths in solvents", "assay_type": "physicochemical", "conditions": "for λem(max)/nm: 100 nM, excitation at peak of absorption; for λabs(max)/nm: 10 μM", "method": "Peak absorption and fluorescence emission wavelengths of compounds 6, 7, 12, 13, 14, 15, 19, 23, 27, 30 and 34 were measured in a variety of solvents, and the results are shown in Table 1. Absorption measurements were recorded at a concentration of 10 μM, and emission measurements were recorded at a concentration of 100 nM. Emission spectra were recorded with excitation at the peak of absorption (S0→S1)."}, "Mycobacterium smegmatis": {"system": "Mycobacterium smegmatis", "test": "Overnight growth curve (OD 600 nm) cytotoxicity assay, M. smegmatis", "assay_type": "cell-based", "method": "A sample of M. smegmatis was taken from a plate culture and inoculated into Middlebrook 7H9 broth containing an added Middlebrook ADC growth supplement to culture overnight at 37° C. for approximately 16 hours.\nSamples were incubated in darkness at room temperature for approximately 2 hrs. A black clear bottom Costar™-96 well plate was then filled, with 200 μl of sample in each well Cells were irradiated for 5 minutes at approximately 15 mW/cm^2. The cytotoxicity of the compounds without irradiation was also assessed.\nThe 96 well plate was put into the plate reader and set up to run a growth curve protocol using the following parameters: • Incubation temperature: 37° C. • OD read wavelength 600 nm • 250 cycles, readings every 5 rains • Shaking for 5 s pre-reading\nThis was left to run overnight to obtain kinetic growth curves based on optical density readings."}, "black-grass cells": {"system": "black-grass cells", "test": "Cytotoxicity assay (FDA/PI) in black-grass cell suspension culture", "assay_type": "cell-based", "method": "5 mL of black-grass cell suspension culture was treated with 0.1, 1, 5, and 10 μM of compound numbers 7, 14, 12 and 15 for 1 hour at room temperature. Cells treated with 0.1% DMSO were used as a control. Cells were irradiated (˜365 nm) for 5 minutes before being incubated at 25° C., 150 rpm for 24 hours. In addition, the cytotoxicity of the compounds without irradiation was also assessed. Cell viability of five biological replicates for each concentration were determined via fluorescence assay (FDA/PI) assay. Percentage of cell viability was calculated using following formulation:\n% viability={live cells (FDA)/(live cells+dead cells)}×100\nThe statistical analysis of percentage of cell viability was performed through one-way analysis of variance (ANOVA) followed by Tukey HSD posthoc test using SPSS 23 (IBM, Chicago, Ill., USA)."}, "Bacillus subtilis [2]": {"system": "Bacillus subtilis", "test": "Overnight growth curve (OD 600 nm) cytotoxicity assay, B. subtilis", "assay_type": "cell-based", "method": "A sample of B. subtilis was taken from a plate culture and inoculated into Luria Broth to culture overnight at 37° C. for approximately 16 hours. [table] Samples were incubated in darkness at room temperature for approximately 2 hrs. A black clear bottom Costar™-96 well plate was then filled, with 200 μl of sample in each well Cells were irradiated for 5 minutes at approximately 15 mW/cm^2. The cytotoxicity of the compounds without irradiation was also assessed. The 96 well plate was put into the plate reader and set up to run a growth curve protocol using the following parameters: • Incubation temperature: 37° C. • OD read wavelength 600 nm • 250 cycles, readings every 5 rains • Shaking for 5 s pre-reading This was left to run overnight to obtain kinetic growth curves based on optical density readings."}, "Bacillus subtilis [3]": {"system": "Bacillus subtilis", "test": "Baclight staining (propidium iodide / Syto 9), widefield imaging, B. subtilis", "assay_type": "cell-based", "conditions": "1 μM, 405 nm, 5 min", "method": "Samples prepared according to Table 9 were treated with compounds by diluting 10 mM of stock solution in media to make a 100 μM concentration. This solution was then further diluted 1:10 and 1:100 in media to make 10 μM and 1 μM media solutions containing the compound. 50 μl of cell culture were then added to the 100 μM, 10 μM and 1 μM compound-containing media preparations. Following the treatment outlined in Table 9, each of the three bacterial strains were stained using a Baclight™ staining kit containing separate solutions of Syto™ 9 and Propidium Iodide. One extra sample treated with 0.1 μM of each compound was also included in this assay. M. smegmatis, S. epidermis and B. subtilis were stained with propidium iodide to show non-viable cells and with Syto 9 to show all cells. The following staining procedure was used: • 1. 1 ml of each sample was eluted into a well of a 12-well plate; • 2. One half of the 12 well plate was irradiated at approximately 15 mW/cm^2 for 5 mins; • 3. The content of each well was eluted into separate Eppendorfs and centrifuged at 10,000 r.p.m for 3 rains to form a culture pellet; • 4. Media was then removed, and each pellet resuspended in 200 μl of 1× PBS before being centrifuged at 10,000 r.p.m. for 3 mins. • 5. A preparation of Baclight™-staining solution was made using 1 ml 1× PBS, 3 μl propidium iodide and 3 μl Syto™ 9; • 6. […]"}}}
{"smiles": "COC(=O)/C=C/c1ccc(C#Cc2ccc(N(C)CCN)cc2)cc1", "note": "[Compound 12, methyl (2E)-3-[4-(2-{4-[(2-aminoethyl)(methyl)amino]phenyl}ethynyl)phenyl]prop-2-enoate]", "values": [{"measurement": "λem(max)/nm", "setting": "[1]; DCM", "result": 551, "unit": "nm"}, {"measurement": "λabs(max)/nm", "setting": "[1]; DCM", "result": 371, "unit": "nm"}, {"measurement": "λem(max)/nm", "setting": "[1]; Toluene", "result": 482, "unit": "nm"}, {"measurement": "λabs(max)/nm", "setting": "[1]; Toluene", "result": 380, "unit": "nm"}, {"measurement": "growth of M. smegmatis, radiated samples", "setting": "Mycobacterium smegmatis; 100 μM, 405 nm, 5 min, approximately 15 mW/cm^2", "result": "begin to indicate some cytotoxicity"}, {"measurement": "growth of M. smegmatis, no photoactivation", "setting": "Mycobacterium smegmatis; 1-100 μM, not irradiated", "result": "no significant difference between the treated and untreated controls"}, {"measurement": "black-grass cell viability", "setting": "black-grass cells; 5 μM and 10 μM, after ~365 nm irradiation", "result": "significantly reduced"}, {"measurement": "dependence of cytotoxic effect on irradiation", "setting": "black-grass cells; black-grass cells, ~365 nm, 5 minutes", "result": "only observed after irradiation"}, {"measurement": "growth of B. subtilis, non-irradiated", "setting": "Bacillus subtilis [2]; 1 μM, not irradiated", "result": "slightly less growth than the untreated samples as well as an increased lag time"}, {"measurement": "growth of B. subtilis", "setting": "Bacillus subtilis [2]; 100 μM and 10 μM, with or without photoactivation", "result": "no growth is observed regardless of any photoactivation"}, {"measurement": "cytotoxicity in B. subtilis compared with compound 6", "setting": "Bacillus subtilis [2]; 10 and 1 μM", "result": "more cytotoxicity"}, {"measurement": "proportion of non-viable (red) cells following irradiation compared to non-irradiated sample", "setting": "Bacillus subtilis [3]", "result": "the proportion of non-viable (red) cells is increased"}]}
